{"source": "patent US20050119246A1", "about": "“1H-pyrazolyl derivative compounds, for use in diseases associated with the 5-ht2c receptor” (Bayer Pharmaceuticals Corporation, priority 2001, published 2005)", "origin": "cited, not measured here", "key": {"[1]": {"biological_target": "T1, 5-HT2C receptor (Homo sapiens, UniProt P28335)", "T1 sequence (P28335 33-458)": "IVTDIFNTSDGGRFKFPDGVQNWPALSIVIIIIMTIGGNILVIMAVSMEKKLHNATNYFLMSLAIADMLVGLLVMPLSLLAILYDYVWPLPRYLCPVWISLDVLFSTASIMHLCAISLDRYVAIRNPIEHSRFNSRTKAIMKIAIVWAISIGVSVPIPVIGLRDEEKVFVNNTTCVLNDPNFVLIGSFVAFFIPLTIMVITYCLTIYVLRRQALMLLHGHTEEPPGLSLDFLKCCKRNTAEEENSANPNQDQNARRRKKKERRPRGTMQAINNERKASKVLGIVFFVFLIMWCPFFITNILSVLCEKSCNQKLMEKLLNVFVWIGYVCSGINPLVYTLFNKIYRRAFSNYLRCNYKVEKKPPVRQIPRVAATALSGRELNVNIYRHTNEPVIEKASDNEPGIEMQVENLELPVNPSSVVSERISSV", "settings": "background statement; comparator receptors not named"}, "[2]": {"biological_target": "5-HT2 receptors", "settings": "background statement"}}}
{"smiles": "Cc1cc2c(cc1Cl)N(C(=O)Nc1ccc(Oc3cccnc3C)nc1)CC2", "note": "[SB-242084]", "values": [{"measurement": "selectivity of 5-HT2C receptor antagonist", "setting": "[1]", "value": "at least 100 fold"}]}
{"smiles": "Cc1nc2sccn2c(=O)c1CCN1CCC(=C(c2ccc(F)cc2)c2ccc(F)cc2)CC1", "note": "[ritanserin]", "values": [{"measurement": "pKi for the 5-HT2 receptors", "setting": "[2]", "value": 8.9}, {"measurement": "selectivity for the 5-HT2 receptors over 5-HT1 receptors", "setting": "[2]", "value": "10,000 fold"}]}
